These results are taken from patent US20040235752A1, “3-fluoro-pyrrolidines as antidiabetic agents” (priority 2001, published 2004).

This test deals with DP-IV (Homo sapiens, UniProt P27487). The experiment in a line: DP-IV inhibition assay according to WO95/15309. It counts as biochemical. Particulars: at concentrations up to 5 μM. As to the method:
Compounds were assayed as inhibitors of DP-IV according to the methods described in WO95/15309.

Sequence of DP-IV (P27487 whole entry): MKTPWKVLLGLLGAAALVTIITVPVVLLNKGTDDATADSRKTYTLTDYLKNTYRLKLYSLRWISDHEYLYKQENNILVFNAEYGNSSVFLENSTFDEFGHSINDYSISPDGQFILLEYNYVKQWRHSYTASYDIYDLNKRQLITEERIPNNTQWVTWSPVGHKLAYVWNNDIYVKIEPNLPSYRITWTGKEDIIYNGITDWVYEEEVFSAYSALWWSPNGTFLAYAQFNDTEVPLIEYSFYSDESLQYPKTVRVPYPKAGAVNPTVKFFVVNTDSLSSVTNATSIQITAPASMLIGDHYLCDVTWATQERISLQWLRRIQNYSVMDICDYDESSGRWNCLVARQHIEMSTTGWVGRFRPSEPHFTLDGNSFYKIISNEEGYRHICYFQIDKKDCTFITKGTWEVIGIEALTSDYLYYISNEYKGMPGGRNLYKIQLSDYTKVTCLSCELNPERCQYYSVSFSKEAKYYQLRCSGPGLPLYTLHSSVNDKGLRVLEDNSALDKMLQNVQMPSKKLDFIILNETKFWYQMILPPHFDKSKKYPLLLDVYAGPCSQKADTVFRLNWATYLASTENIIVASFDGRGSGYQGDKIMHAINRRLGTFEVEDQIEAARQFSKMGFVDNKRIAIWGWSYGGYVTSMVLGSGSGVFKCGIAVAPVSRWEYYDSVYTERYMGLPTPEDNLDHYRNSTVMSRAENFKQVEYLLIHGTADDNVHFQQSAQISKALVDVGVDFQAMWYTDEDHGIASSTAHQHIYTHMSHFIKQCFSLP

On to `CC(=O)OC(C)OC(=O)N[C@@H](CCCNC(=O)c1cnccn1)C(=O)N1CC(F)(F)C[C@H]1C#N` (stereo partly drawn) [Example 7, (2S)-1-[N^α-(1′-Acetoxyethoxycarbonyl)-N^ω-(pyrazinyl-2-carbonyl)-L-ornithinyl]-4,4-difluoropyrrolidine-2-carbonitrile], for which the “inhibition of DP-IV” value is reported as “do not show significant inhibition”. The same measure for `CC(=O)OCOC(=O)N[C@@H](CCCNC(=O)c1cnc(Cl)c(Cl)c1)C(=O)N1CCC(F)(F)C1` [Example 8, 1-[N^α-(Acetoxymethoxycarbonyl)-N^ω-(5,6-dichloronicotinoyl)-L-ornithinyl]-3,3-difluoropyrrolidine]: “do not show significant inhibition”.
